Measurements from article PMC6458850, “CXXC5 mediates growth plate senescence and is a target for enhancement of longitudinal bone growth” (Life Science Alliance, 2019).

How the values were obtained:
tibiae (E15.5) = experiment: Tibial organ culture (ex vivo); design: species or system mouse; conditions: 100 nM, 6 d
Method: Figure 2. The effects of estrogen on CXXC5 expression and the mediation of growth plate senescence. (A) Immunoblotting (upper) and quantitative analyses (mean ± SEM, n = 3) (lower) in C28/I2 cells treated with 100 nM E2 (17β-estradiol) for 0, 1, 3, 6, 24, 48, or 72 h. (B) Immunocytochemical staining (left) and quantitative analyses of the fluorescent intensity (mean ± SEM, n = 3; t test, **P < 0.005 and ***P < 0.0005) (right) in C28/I2 cells treated with 100 nM E2 for 40 h. Scale bars, 100 μm. (C–E) Tibial organ cultures (E15.5) incubated with 100 nM E2 for 6 d. Representative images at 6 d (C, left) and quantitative analyses of the growth changes (mean ± SEM, n = 5; t test, ***P < 0.0005) (C, right). Scale bar, 1 mm. H&E staining (D, left) and quantification of each zone height (mean ± SEM, n = 5; t test, *P < 0.05 and **P < 0.005) (D, right) in the growth plate. Scale bar, 200 μm. IHC analyses of β-catenin and CXXC5 (E). Scale bars, 50 μm. (F) 3-wk-old Cxxc5^+/+ and Cxxc5^−/− mice were treated with E2 cypionate (70 μg/kg) by i.m. injection once a week for 3 wk (n = 3–4). Representative images of H&E staining and IHC analyses for BrdU, β-catenin, and CXXC5 in the growth plates of proximal tibiae are shown. […] Tibial length was measured before treatment and after 6 d in culture. The samples were then prepared for paraffin embedding, sectioned, and analyzed by H&E and IHC staining.

ATDC5 cells = experiment: Chondrocyte proliferation, differentiation and Wnt/β-catenin signaling in ATDC5 cells; type: cell-based, mouse
Method: Figure S7. The effects of KY19382 on chondrocyte proliferation and differentiation. (A) ATDC5 cells treated with 0.01 or 0.1 μM concentrations of KY19382 were incubated for 48 h followed by treatment with 50 μM BrdU for 12 h before harvesting. BrdU incorporation was visualized by immunofluorescent staining using a specific BrdU antibody (left). BrdU-positive cells were quantified (mean ± SEM, n = 3; ANOVA, P = 7.8 × 10^−5; Tukey’s post-hoc test, *P < 0.05 and ***P < 0.0005) (right). Scale bar, 100 μm. (B) qRT-PCR analyses of mRNA levels of chondrogenic differentiation markers in ATDC5 cells incubated with 0.1 μM KY19382 for 3 d in three-dimensional alginate beads after transfection with control siRNA or Ctnnb1 siRNA (mean ± SEM, n = 3; t test, *P < 0.05, **P < 0.005, and ***P < 0.0005). (C) qRT-PCR analyses of mRNA levels of chondrogenic differentiation markers in C28/I2 cells incubated with 1 μM KY19382 for 3 d in three-dimensional alginate beads (mean ± SEM, n = 3; t test, *P < 0.05 and ***P < 0.0005). n.s., no significance.
Figure S8. qRT-PCR analyses for target-specificity of KY19382. qRT-PCR analyses of mRNA levels of pathway-specific target genes in ATDC5 cells treated with 0.01 or 0.1 μM concentrations of KY19382 for 4 h (mean ± SEM, n = 3; ANOVA and Tukey’s post-hoc test, *P < 0.05 and **P < 0.005 versus DMSO-treated control). n.s., no significance versus DMSO-treated control.
The mouse chondrogenic cell line, ATDC5, was obtained from the RIKEN Cell Bank. The human juvenile costal chondrocyte cell line, C28/I2, was provided by Dr. W U Kim (Catholic University, Korea). HEK293-TOP cells (HEK293 cells containing the chromosomally incorporated TOPFlash gene) were provided by Dr. S Oh (Kuk Min University, Korea). ATDC5 cells were maintained in DMEM/F12 (1:1) (Gibco) supplemented with 5% FBS (Gibco). To induce hypertrophic differentiation, ATDC5 cells were incubated with insulin–transferrin–sodium selenite supplement (Gibco) in three-dimensional alginate beads for 3 d, as described previously ([Kawasaki et al, 2008]). C28/I2 and HEK293-TOP cells were maintained in DMEM (Gibco) containing 10% FBS. All chemicals were dissolved in dimethyl sulfoxide (DMSO; Sigma-Aldrich) for the in vitro studies. For E2 (17β-estradiol; Sigma-Aldrich) treatment, the cells were cultured in phenol red–free DMEM/F12 with 5% charcoal-stripped FBS for 24 h followed by serum-free medium for 24 h before the experiment. The PTD-DBMP was synthesized by Peptide 2.0 Inc.
ATDC5 or C28/I2 cells were seeded on glass coverslip in 12-well culture plates. The cells were washed with PBS and fixed with 4% PFA at room temperature for 15 min. After permeabilization with 0.1% Triton X-100 for 15 min and blocking with 5% BSA for 1 h, the cells were incubated with primary antibodies specific for β-catenin (1:100) or CXXC5 (1:200) at 4°C overnight. The cells were washed in PBS and incubated with Alexa Fluor 488 or Alexa Fluor 555 secondary antibodies (1:200) at room temperature for 1 h. Cell nuclei were counterstained with DAPI for 10 min and the stained samples were examined under an LSM700 META microscope using 405-, 488-, or 543-nm excitation wavelengths. For BrdU assay, the cultured cells were incubated with BrdU solution (25 μM) overnight, followed by immunocytochemical staining with antibody against BrdU (1:100).
Immunoprecipitation was performed as previously described ([Kim et al, 2015]). To monitor the protein–protein interactions, 1 mg of WCLs were incubated with anti-DVL1 and protein G agarose beads (GenDEPOT) or anti-Myc and protein A agarose beads (GenDEPOT) at 4°C for 16 h, and the beads were then washed three times in RIPA buffer. The resulting immune complexes were resolved by SDS–PAGE, and immunoblotting was performed with the indicated antibodies.
Total RNA was extracted using Trizol reagent (Invitrogen) according to the manufacturer’s instructions. […]

[1] = ATDC5 cells, 0.01 or 0.1 μM, 4 h

Structure (SMILES) | tibial length in ex vivo tibial culture (tibiae (E15.5)) | BrdU-positive ATDC5 cells (ATDC5 cells; 0.01 or 0.1 μM, 48 h) | CXXC5–DVL interaction (immunoprecipitation) (ATDC5 cells; ATDC5 cells transfected with FLAG-DVL1 and CXXC5-Myc, 0.1 μM, 4 h) | nuclear translocation of β-catenin (ATDC5 cells; ATDC5 cells, 0.1 μM, 48 h) | mRNA levels of chondrogenic markers (ATDC5 cells; ATDC5 cells, 0.1 μM, 3 d, alginate beads) | expression levels of Wnt/β-catenin target genes (Wisp1, Axin2) (ATDC5 cells; [1]) | expression of 19 other genes that respond to other pathways (off-target effects) (ATDC5 cells; [1]) | concentration sufficient to promote activation of Wnt/β-catenin pathway in vitro (ATDC5 cells; Fig 4E and Fig S8) [µM]
C[C@]12CC[C@@H]3c4ccc(O)cc4CC[C@H]3[C@@H]1CC[C@@H]2O [E2, 17β-estradiol] | reduced tibial length |  |  |  |  |  |  | 
CON=C1C(=C2C(=O)Nc3cc(Cl)c(Cl)cc32)Nc2ccccc21 [KY19382, 5,6-dichloroindirubin-3′-methoxime] |  | enhanced number | interruption | elevated nuclear translocation | up-regulated | markedly increased | not significantly altered | 0.01
